Data reported in patent publication US20040192774A1, “Method for improving the well-being of poultry by in-ovo injection of carnitine” (priority 2001, published 2004).

Experiments:
[1] = tested on: Cobb-500 strain of broiler chicken; experiment: Floor pen studies: broiler performance after day 18 in-ovo carnitine injection (or carnitine-supplemented feed); format: in vivo; conditions: for FCR 0-49 (feed conversion ratio): 0 to 49 days post-hatch; for FCR 0-70 (feed conversion ratio): 0 to 70 days post-hatch; for FCR 49-70 (feed conversion ratio): 49 to 70 days post-hatch
Procedure: (§1) Approximately 4000 embryonated, freshly laid eggs of Cobb-500 strain of broiler chicken (obtained from Cobb Vantress of Siloam Springs, Ark.) were pre-selected as to uniformity of weight and originated from breeder hens at approximately 35-45 weeks of the production cycle. The eggs were kept in a climatised incubation chamber at 37° C. up to day 18 post-laying. Eggs were then injected with either 100 μl sterile physiological saline or 150 μg carnitine comprised in 100 μl sterile physiological saline on day 18 of incubation. Incubation was then carried on until hatch. Carnitine was commercially available L-Carnitine (trade name: Carnifeed, Lonza Inc., 100% L-Carnitine). The eggs were injected with the automatic inovoject-system of Embrex, Inc. (maximum capacity: 50,000 eggs per hour). The system punches a tiny hole into the egg shell and then lowers a needle through the hole which delivers the therapeutic product to the embryo. Needles are automatically sanitized after each injection and provide for 100% inoculation.
(§2) To assess the effect of the carnitine injection carried out according to Example 1, birds were selected at random from the birds originating from the Example 1 and raised up to 70 days. The birds were either placed in a commercial production environment (12 floor pens/trt; 50 birds/pen) or in metabolic chambers with normal feed but subnormal, controlled oxygen supply. The latter is an accepted testing model for trigger the ascites condition in predispositioned birds. Approximately 2400 chicks were allocated to floor pen groups as described below. Three hundred birds were selected at random and incubated in the metabolic chambers. Standard feeds were applied (similar to diets fed to commercial broiler chickens); and nutrient specifications are shown below. Feeds were mixed according to accepted mixing procedures such that treatment diets only differed in presence or absence of carnitine.
Data were analyzed using the General Linear Model procedure of SAS (SAS, 1985). When a significant F statistic was noted by ANOVA, treatment means were compared using least square analysis variance.
Data are only given where probability levels were p≦0.10. In general, carnitine effects, though not always being statistically significant at p<0.05, were consistent across trials.
Number of days post-hatch are indicated, e.g., BW21: Hatched chicks were grown for 21 days prior to measurement.
Mortality (M) is given as main effect mean in %. Number of days post-hatch are indicated, e.g., M21-49: percentage of death birds in the period of 21 to 49 days post-hatch.
Main effect means for feed conversion ratio (FCR, in grams of feed per gram of gain) is given. Number of days post-hatch are indicated, e.g., FCR 0-49: FCR in the period 0 to 49 days post-hatch that chicks were grown. For further control, the effect of in-ovo injection was compared to that of feeding the same diet, except that this diet was supplemented with carnitine at 200 ppm. Feed conversion was improved by carnitine treatment, either fed or injected. The results from both methods of carnitine administration were consistent.

[2] = tested on: Cobb-500 strain of broiler chicken; experiment: Metabolic chamber studies: subnormal oxygen supply, ascites model; format: in vivo; conditions: for HCT (hematocrit, packed cell volume) / AS (ascites score): day 14, 17% oxygen
Source text: In the context of the present invention, the ascites score is understood as an empirical score from 0 to 3 indicating no to severe myocardial degeneration, based on the histopathological changes. Pathological changes in cardiac traits such as right ventricle weight and ascites heart ratio, defined as the ratio of right ventricle weight to total ventricle weight, are also taken into account.
A score of zero indicated minimal fat deposition and myofiber size variation, whereas a score of three indicated marked myocardial degeneration, highly abnormal cardiac traits and arteritis. A score of two was intermediate to the two extremes.
as §1, §2
Chicks were reared in air-tight chambers at subnormal oxygen supply simulating high altitude conditions. Feed and drinking water were provided for ad-libitum consumption. Chamber temperature was maintained at 30° C. the first 5 days of age and at 27.8° C. thereafter. Chambers were checked twice daily for bird mortality. Compressed dried air (7% relative humidity (rH), 17% oxygen) was delivered to chicks in the chamber via polyethylene tubes. It was necessary to provide low rH-air to the chick chamber in order to hold the chamber at rH below 75%. The concentration of oxygen and carbon dioxide in air exiting each bird's chamber was monitored every 15-25 minutes using Ametek oxygen (accuracy±0.2%) and carbon dioxide (accuracy±0.3%) analyzers, respectively.
Apart from body weight and body temperature at hatching (day 0; BW0, BT0), ascites score (AS) and hematocrit (packed cell volume; HCT) of chicks were determined at day 14. Blood (2 ml) was taken from the birds via venipuncture after which they were euthanized using CO2 and necropsies were performed.
Hearts were weighed whole and then dissected for determination of ascites heart ratio. Heart sections were taken and fixed in 10% buffered neutral formalin for histopathologic examinantion. The results of heart dissection and histopathological analysis were summarized in the ascites score.

[3] = fed: diet supplemented with carnitine at 200 ppm
[4] = injection of carnitine versus not injected

Structure (SMILES): C[N+](C)(C)CC(O)CC(=O)[O-] (stereo not drawn) [carnitine, 3-hydroxy-4-N-trimethylaminobutyric acid]
- BW 21 (body weight, main effect mean) ([1]; 150 μg carnitine in-ovo injected on day 18 of incubation, 21 days post-hatch): 719.9 g
- BW 49 (body weight, main effect mean) ([1]; 150 μg carnitine in-ovo injected on day 18 of incubation, 49 days post-hatch): 2940.7 g
- BW 70 (body weight, main effect mean) ([1]; 150 μg carnitine in-ovo injected on day 18 of incubation, 70 days post-hatch): 4168.1 g
- effect on feed conversion (in words) ([1]; carnitine treatment, either fed or injected): improved
- FCR 0-49 (feed conversion ratio) [1, 3]: 1.817 grams of feed per gram of gain
- FCR 0-70 (feed conversion ratio) [1, 3]: 2.331 grams of feed per gram of gain
- FCR 49-70 (feed conversion ratio) [1, 3]: 3.535 grams of feed per gram of gain
- FCR 0-49 (feed conversion ratio) ([1]; in-ovo injected day 18): 1.839 grams of feed per gram of gain
- FCR 0-70 (feed conversion ratio) ([1]; in-ovo injected day 18): 2.369 grams of feed per gram of gain
- FCR 49-70 (feed conversion ratio) ([1]; in-ovo injected day 18): 3.648 grams of feed per gram of gain
- WG 0-21 (weight gain, main effect mean) ([1]; in-ovo injected day 18, period 0-21 days post-hatch): 681.7 g
- M 0-70 (mortality, main effect mean) ([1]; in-ovo injected day 18, period 0 to 70 days post-hatch): 21.92%
- WG 21-49 (weight gain, main effect mean) ([1]; in-ovo injected day 18, period 21-49 days post-hatch): 2220.8 g
- M 21-49 (mortality, main effect mean) ([1]; in-ovo injected day 18, period 21 to 49 days post-hatch): 4.66%
- WG 49-70 (weight gain, main effect mean) ([1]; in-ovo injected day 18, period 49-70 days post-hatch): 1227.4 g
- M 49-70 (mortality, main effect mean) ([1]; in-ovo injected day 18, period 49 to 70 days post-hatch): 14.33%
- weight per 100 chicks started ([1]; in-ovo injected eggs, end of the 70 days period post-hatch): 32.54 kg
- mortality rate, cumulative ([1]; in-ovo injection, highest age): ~20%
- HCT (hematocrit, packed cell volume) ([2]; fed: L-carnitine at 200 ppm (coated on silica particles) via the feed): 30.25 Percent packed cells
- AS (ascites score) ([2]; fed: L-carnitine at 200 ppm (coated on silica particles) via the feed, scale from 0-3): 0.303
- BT 0 (body temperature at hatching) ([2]; in-ovo injected day 18, day 0): 101.73 ° F.
- BW 0 (body weight at hatching) ([2]; in-ovo injected day 18, day 0): 38.82 g
- HCT (hematocrit, packed cell volume) ([2]; in-ovo injected day 18): 30.04 Percent packed cells
- AS (ascites score) ([2]; in-ovo injected day 18, scale from 0-3 (no, slight, moderate, severe ascites lesions)): 0.277
- effect on ascites score (in words) [2, 4]: decreased
- effect on hematocrit (in words) [2, 4]: decreased
- increase of body weight at hatching ([2]; single injection of carnitine into incubating eggs, versus control): 0.5 g
